From patent publication US20110039762A1, “TARGETED ANTIMICROBIAL MOIETIES” (C3 JIAN, INC., priority 2009, published 2011)
Entries after “also recorded” stand apart in the source; their conditions may differ.

Key:
[1] = test system: C. jeikeium; experiment: Kill or inhibit growth/proliferation; morphology, biofilm and growth disruption (Tables 5, 6); assay type: cell-based, Corynebacterium jeikeium; set-up: key: A: Peptide aggregates; B: Less hyphal formation; Clumps; Diffuse clumps and small polyps; F: Diffuse growth; H: Thin; I: Growth inhibition; Microcolony formation; Rippled; Small polyps; Thick; W: Halo formation on top, microlonies on bottom; note: test concentration or dose not given here
[2] = test system: MRSA; experiment: as above; assay type: cell-based, Methicillin-resistant Staphylococcus aureus; set-up: key: A: Peptide aggregates; B: Less hyphal formation; Clumps; Diffuse clumps and small polyps; F: Diffuse growth; H: Thin; I: Growth inhibition; Microcolony formation; Rippled; Small polyps; Thick; W: Halo formation on top, microlonies on bottom; note: test concentration or dose not given here
[3] = test system: S. epidermidis; experiment: as above; assay type: cell-based, Staphylococcus epidermidis; set-up: key: A: Peptide aggregates; B: Less hyphal formation; Clumps; Diffuse clumps and small polyps; F: Diffuse growth; H: Thin; I: Growth inhibition; Microcolony formation; Rippled; Small polyps; Thick; W: Halo formation on top, microlonies on bottom; note: test concentration or dose not given here
[4] = test system: microorganisms (e.g., bacteria, yeasts, fungi); experiment: Targeting peptide binding to target microorganisms (Table 3); conditions: preferably 1x PBS
[5] = test system: microorganisms; experiment: Peptides having multiple activities (targeting/binding, antimicrobial, growth or phenotype altering)
Text: In certain embodiments, peptides described herein can have multiple activities. Thus for example, a peptide can have both binding/targeting activity and antimicrobial activity. Such peptides can be used, e.g., in a chimeric construct, for any or all of these properties. Thus, for example, a peptide designated “B” in Table 8 can be used as a targeting peptide. If it is also designated G or M it can also be used for antimicrobial activity.

[6] = test system: M. luteus; experiment: Kill or inhibit growth/proliferation; morphology, biofilm and growth disruption (Tables 5, 6); assay type: cell-based, Micrococcus luteus; set-up: key: A: Peptide aggregates; B: Less hyphal formation; Clumps; Diffuse clumps and small polyps; F: Diffuse growth; H: Thin; I: Growth inhibition; Microcolony formation; Rippled; Small polyps; Thick; W: Halo formation on top, microlonies on bottom; note: test concentration or dose not given here
[7] = test system: S. pneumoniae; experiment: as above; assay type: cell-based, Streptococcus pneumoniae; set-up: key: A: Peptide aggregates; B: Less hyphal formation; Clumps; Diffuse clumps and small polyps; F: Diffuse growth; H: Thin; I: Growth inhibition; Microcolony formation; Rippled; Small polyps; Thick; W: Halo formation on top, microlonies on bottom; note: test concentration or dose not given here
[8] = test system: C. jejuni; experiment: as above; assay type: cell-based, Campylobacter jejuni; set-up: key: A: Peptide aggregates; B: Less hyphal formation; Clumps; Diffuse clumps and small polyps; F: Diffuse growth; H: Thin; I: Growth inhibition; Microcolony formation; Rippled; Small polyps; Thick; W: Halo formation on top, microlonies on bottom; note: test concentration or dose not given here
[9] = microorganism the targeting peptide binds, binding in aqueous buffers varied by peptide solubility
[10] = microorganism(s) the targeting peptide binds, binding in aqueous buffers depending on peptide solubility

| Substance | Organism, effect [1] | Organism, effect [2] | Organism, effect [3] | Target(s) [4, 9] | Activities [5] | Target(s) [4, 10] | Organism, effect [6] | Organism, effect [7] | Organism, effect [8] |
| --- | --- | --- | --- | --- | --- | --- | --- | --- | --- |
| ALDCSEQSVILWYETILDKIVGVIK [PF-028] | C. jeikeium (M) | MRSA (R) | S. epidermidis (M) | S. epidermidis and M. luteus and MRSA | G B |  |  |  |  |
| PF-011: peptide having multiple activities (chain 1 MFCYYKQHKGDNFSIEEVKNIIADNEMKVN; chain 2 MFCYYKQHKGDNFSIEEVKNIIADNEMKVN; Peptide with targeting and/or antimicrobial activity) | C. jeikeium (C) | MRSA (R) |  | M. luteus; also recorded: E. coli; also recorded: P. aeruginosa; also recorded: S. pneumoniae; also recorded: C. jeikeium | G B |  |  |  |  |
| PF-032 (RIVVPAHQSNMASTPNLSITP; Peptide with targeting and/or antimicrobial activity) | C. jeikeium (C) |  | S. epidermidis (S) |  |  |  |  |  |  |
| PF-046: peptide having multiple activities (chain 1 LDFYLTKHLTLML; chain 2 LDFYLTKHLTLML; Peptide with targeting and/or antimicrobial activity) | C. jeikeium (R) | MRSA (R) | S. epidermidis (C) | E. coli; also recorded: E. faecalis; also recorded: C. jeikeium | G B |  |  |  |  |
| PF-048: peptide having multiple activities (chain 1 LYFAFKKYQERVNQAPNIEY; chain 2 LYFAFKKYQERVNQAPNIEY; Peptide with targeting and/or antimicrobial activity) | C. jeikeium (S) | MRSA (W) | S. epidermidis (D) | S. epidermidis and M. luteus and E. coli and MRSA and C. jeikeium and C. jejuni | G B |  |  |  |  |
| PF-099: peptide having multiple activities (EIIAYLEGRFANA; Peptide with targeting and/or antimicrobial activity) | C. jeikeium (C) |  | S. epidermidis (D) |  | G B | S. epidermidis; also recorded: M. luteus; also recorded: E. coli; also recorded: C. jeikeium |  |  |  |
| PF-129: peptide having multiple activities (MKLLARDPWVCAWNDIW; Peptide with targeting and/or antimicrobial activity) | C. jeikeium (R) |  | S. epidermidis (M) |  | G B | S. epidermidis and MRSA and E. faecalis and C. jeikeium and C. jejuni |  |  |  |
| PF-133: peptide having multiple activities (GDPTAGQKPVECP; Peptide with targeting and/or antimicrobial activity) | C. jeikeium (R) |  |  |  | G B | S. epidermidis; also recorded: C. jeikeium; also recorded: C. jejuni; also recorded: M. smegmatis |  |  |  |
| PF-135: peptide having multiple activities (PPARPARIPQTPTLHGASLFRQRS; Peptide with targeting and/or antimicrobial activity) | C. jeikeium (R) |  |  |  | G B | S. epidermidis and M. luteus and E. coli and P. aeruginosa and MRSA and C. jeikeium and M. smegmatis |  |  |  |
| PF-153: peptide having multiple activities (GILARADCSQIA; Peptide with targeting and/or antimicrobial activity) | C. jeikeium (C) |  | S. epidermidis (M) |  | G B | M. luteus and P. mirabilis and E. coli and MRSA |  |  |  |
| PF-164: peptide having multiple activities (EEVSRALAGIGLGLGCRIG; Peptide with targeting and/or antimicrobial activity) | C. jeikeium (R) |  |  |  | G B | S. epidermidis; also recorded: M. luteus; also recorded: E. coli; also recorded: C. jeikeium |  |  |  |
| PF-173: peptide having multiple activities (AGRTAIVQGGG; Peptide with targeting and/or antimicrobial activity) | C. jeikeium (D) |  | S. epidermidis (A) |  | G B | S. epidermidis; also recorded: M. luteus; also recorded: P. mirabilis; also recorded: E. coli; also recorded: P. aeruginosa; also recorded: C. albicans; also recorded: C. jeikeium; also recorded: C. jejuni |  |  |  |
| PF-186: peptide having multiple activities (DADKNLSLERDRFAWRVAAP; Peptide with targeting and/or antimicrobial activity) | C. jeikeium (A) |  | S. epidermidis (C) |  | G B | S. epidermidis and M. luteus and E. coli and P. aeruginosa and MRSA and C. jeikeium |  |  |  |
| PF-188: peptide having multiple activities (ARTFAGRLGTRYFGGLMRSTKA; Peptide with targeting and/or antimicrobial activity) | C. jeikeium (H) |  |  |  | G B | S. epidermidis and M. luteus and E. coli and C. albicans and MRSA and E. faecalis |  |  |  |
| PF-190: peptide having multiple activities (HFILRKPLLFMIHSLKTGPLDRF; Peptide with targeting and/or antimicrobial activity) | C. jeikeium (R) |  | S. epidermidis (C) |  | G B |  |  |  |  |
| PF-196: peptide having multiple activities (TTARYIRRQCHTSITPLSQG; Peptide with targeting and/or antimicrobial activity) | C. jeikeium (R) |  | S. epidermidis (C) |  | G B |  |  |  |  |
| PF-203: peptide having multiple activities (SWKCHHLAI; Peptide with targeting and/or antimicrobial activity) | C. jeikeium (R) |  | S. epidermidis (A) |  | G B |  |  |  |  |
| PF-208: peptide having multiple activities (DAYHCHLVRSPDAHDLSMRIGFV; Peptide with targeting and/or antimicrobial activity) | C. jeikeium (A) |  | S. epidermidis (D) |  | G B | S. epidermidis and C. albicans and MRSA and S. pneumoniae and E. faecalis and C. jeikeium and C. jejuni |  |  |  |
| PF-562: peptide having multiple activities (chain 1 TPEQWLERSTVVVTGLLNRK; chain 2 TPEQWLERSTVVVTGLLNRK; Peptide with targeting and/or antimicrobial activity) |  | MRSA (M) | S. epidermidis (A) |  | G B |  | M. luteus (R) | S. pneumoniae (D) | C. jejuni (R) |
